Results reported in patent US12121614B2, “Delayed release composition for peroral administration” (VICORE PHARMA AB, priority 2020, dated 2024).
Where “and” joins values, the source holds several entries; their conditions need not be identical. Equal entries are not always repeated. Where two headings read alike, the source gives them in different places.

Legend:
[1] = Phase I clinical trial: safety and tolerability of C21 in healthy subjects; assay type: in vivo, human; conditions: healthy male and female subjects, gradual escalation of dose
Method: A Phase I clinical trial was conducted to evaluate the safety, tolerability, and pharmacokinetics of C21 in healthy male and female subjects. The study design allowed a gradual escalation of dose with intensive clinical data and PK monitoring to ensure the safety and wellbeing of subjects.
The study was designed and conducted in accordance with the CRO's standard operating procedures (SOPs), which comply with the ethical principles laid down in the International Council for Harmonisation (ICH) Good Clinical Practice (GCP) guidance as required by the major regulatory authorities, and in accordance with the Declaration of Helsinki as amended by the 48th General Assembly in October 1996.

[2] = Phase I clinical trial, food effect part: pharmacokinetics of C21 fed vs fasted; assay type: in vivo, human; conditions: for AUC(0-t) / AUC(0-inf) / Cmax / Vd/F / half-life / Tmax: both sexes, human, plasma; for Tmax: read-out: tmax, Median
Method: In addition, the effect of food on the pharmacokinetics (PK) of C21 was investigated in an open label manner in 10 male and female subjects at a single oral dose of 75 mg.
Subjects were to receive two single doses of 75 mg of C21 at least 3 days apart in a randomised fashion either in fasted or in fed state. A Food and Drug Administration (FDA)-recommended high-fat breakfast was used to investigate maximum effects.
In the food effect part of the study, the subjects' ages ranged from 22 to 44 years with a median age of 36.0 years. Most of the subjects were Caucasian (9 (90.0% of) subjects) and male (8 (80.0% of) subjects). The mean (SD) BMI of overall subjects was 23.96 (2.223) kg/m^2.
C21 sodium salt as a pre-frozen oral solution (comprising 2.5 mg/mL C21 sodium salt sodium salt dissolved in an aqueous carbonate buffer) with a composition as shown in Table 1 below.
Plasma concentrations below the lower limit of quantification (LLOQ) were presented as below the lower limit of quantification (BLQ). Plasma concentrations for C21 were summarised by study part, dose cohort and nominal time point.
Pharmacokinetic parameters were calculated by non-compartmental analysis methods from the concentration-time data using Phoenix® WinNonlin® (Version 8.0) or higher following these guidelines: • Actual sampling times relative to dosing rather than nominal times were used in the calculation of all derived pharmacokinetic parameters. • There was no imputation of missing data. • Any subjects with missing concentration data were included in the PK analysis set provided that at least Cmax and AUC(0-t) could be reliably calculated.
All BLQ values pre-dose and in the absorption phase prior to the first quantifiable concentration were substituted by zeros. Single BLQs that fell between two evaluable concentrations were substituted by missing, before the calculation of the PK variables. Consecutive BLQs that fell between evaluable concentrations were substituted by zero, before the calculation of the PK variables. Terminal BLQ values were disregarded.
Bioequivalence of PK parameters from the open label food effect arm were determined by constructing 90% confidence intervals around the estimated difference between the Test and Reference treatments using a mixed effects model based on natural log transformed data. The mixed effects model was implemented using SAS Proc Mixed, with REML estimation method and Kenward-Roger degrees of freedom algorithm.
Natural logarithm transformed AUC(0-inf) (if data permitted), AUC(0-24) and Cmax were analysed using a mixed effects model with sequence, period and treatment as fixed effects and subject within sequence as a random effect. Estimates of the mean differences (Test-Reference) and corresponding 90% confidence intervals were obtained from the model. The estimated mean differences and 90% confidence intervals for the differences were exponentiated to provide estimates of the ratio of geometric means (Test/Reference) and 90% confidence intervals for the ratios. C21 in the fasted state is the Reference treatment and C21 in the fed state is the Test treatment.
The comparisons assessing the food effect (bioequivalence) were used to assess the effect of food on the rate and extent of absorption of C21 administered under fasted and fed conditions with estimates of the mean differences as well as corresponding 90% confidence intervals being presented.
The model is a mixed analysis of variance (ANOVA) model with a fixed term for sequence, period, treatment, and a random effect for subject within sequence.

[3] = 75 mg, fed (Test) vs fasted (Reference)
[4] = 75 mg, higher for the fed treatment
[5] = single oral dose 75 mg, Fasted, N = 9
[6] = single oral dose 75 mg, Fed, N = 10

Compound: CCCCOC(=O)NS(=O)(=O)c1sc(CC(C)C)cc1-c1ccc(Cn2ccnc2)cc1 [C21, N-butyloxycarbonyl-3-(4-imidazol-1-ylmethylphenyl)-5-iso-butylthiophene-2-sulfonamide]
- safety and tolerability [1]: safe and generally well tolerated
- serious adverse events [1]: No serious adverse events
- AUC(0-24), Geometric Mean Ratio (Fed:Fasted) [2, 3]: 0.45 and 0.449
- AUC(0-inf), Geometric Mean Ratio (Fed:Fasted) [2, 3]: 0.45 and 0.449
- Cmax, Geometric Mean Ratio (Fed:Fasted) [2, 3]: 0.16 and 0.155
- CL/F, fed treatment compared to fasted treatment [2, 4]: approximately 2 fold
- VZ/F, fed treatment compared to fasted treatment [2, 4]: 3 fold
- food effect on pharmacokinetics ([2]; Phase I clinical trial in healthy subjects): a pronounced food effect was observed
- AUC(0-t) ([2]; oral, 75 mg, Fasted (N = 9), mixed ANOVA model, read-out: AUC(0-24), Geometric Mean (95% CI), mixed effects model): 1710 ng·h/mL
- AUC(0-inf) ([2]; oral, 75 mg, Fasted (N = 9), mixed ANOVA model, read-out: AUC(0-inf), Geometric Mean (95% CI), mixed effects model): 1710 ng·h/mL
- Cmax ([2]; oral, 75 mg, Fasted (N = 9), mixed ANOVA model, read-out: Cmax, Geometric Mean (95% CI), mixed effects model): 1700 ng/mL
- AUC(0-t) ([2]; oral, 75 mg, Fed (N = 10), mixed ANOVA model, read-out: AUC(0-24), Geometric Mean (95% CI), mixed effects model): 768 ng·h/mL
- AUC(0-inf) ([2]; oral, 75 mg, Fed (N = 10), mixed ANOVA model, read-out: AUC(0-inf), Geometric Mean (95% CI), mixed effects model): 769 ng·h/mL
- Cmax ([2]; oral, 75 mg, Fed (N = 10), mixed ANOVA model, read-out: Cmax, Geometric Mean (95% CI), mixed effects model): 263 ng/mL
- Cmax ([2]; po, 75 mg, single oral dose 75 mg, Fasted, N = 9, plasma, read-out: Cmax, Arithmetic Mean): 1810 ng/mL
- Cmax ([2]; po, 75 mg, single oral dose 75 mg, Fasted, N = 9, plasma, read-out: Cmax, Geometric Mean): 1710 ng/mL
- AUC(0-t) ([2]; po, 75 mg, single oral dose 75 mg, Fasted, N = 9, read-out: AUC(0-6), Arithmetic Mean): 1850 ng·h/mL
- AUC(0-t) ([2]; po, 75 mg, single oral dose 75 mg, Fasted, N = 9, read-out: AUC(0-6), Geometric Mean): 1760 ng·h/mL
- AUC(0-t) ([2]; po, 75 mg, single oral dose 75 mg, Fasted, N = 9, read-out: AUC(0-12), Arithmetic Mean): 1860 ng·h/mL
- AUC(0-t) ([2]; po, 75 mg, single oral dose 75 mg, Fasted, N = 9, read-out: AUC(0-12), Geometric Mean): 1770 ng·h/mL
- AUC(0-t) ([2]; po, 75 mg, single oral dose 75 mg, Fasted, N = 9, read-out: AUC(0-24), Arithmetic Mean): 1860 ng·h/mL
- AUC(0-inf) ([2]; po, 75 mg, single oral dose 75 mg, Fasted, N = 9, read-out: AUC(0-inf), Arithmetic Mean): 1860 ng·h/mL
- AUC(0-inf) ([2]; po, 75 mg, single oral dose 75 mg, Fasted, N = 9, read-out: AUC(0-inf), Geometric Mean): 1770 ng·h/mL
- AUC(0-t) ([2]; po, 75 mg, single oral dose 75 mg, Fasted, N = 9, read-out: AUC(0-t), Arithmetic Mean): 1840 ng·h/mL
- AUC(0-t) ([2]; po, 75 mg, single oral dose 75 mg, Fasted, N = 9, read-out: AUC(0-t), Geometric Mean): 1750 ng·h/mL
- Vd/F ([2]; po, 75 mg, single oral dose 75 mg, Fasted, N = 9, read-out: Vz/F, Arithmetic Mean): 36.6 L
- Vd/F ([2]; po, 75 mg, single oral dose 75 mg, Fasted, N = 9, read-out: Vz/F, Geometric Mean): 34.8 L
- half-life ([2]; po, 75 mg, single oral dose 75 mg, Fasted, N = 9, read-out: t1/2, Arithmetic Mean): < 60 min
- half-life ([2]; po, 75 mg, single oral dose 75 mg, Fasted, N = 9, read-out: t1/2, Geometric Mean (converted)): 34.1 min
- Tmax ([2]; po, 75 mg, single oral dose 75 mg, Fasted, N = 9): 40.2 min
- Cmax ([2]; po, 75 mg, single oral dose 75 mg, Fed (high-fat breakfast), N = 10, plasma, read-out: Cmax, Arithmetic Mean): 269 ng/mL
- Cmax ([2]; po, 75 mg, single oral dose 75 mg, Fed (high-fat breakfast), N = 10, plasma, read-out: Cmax, Geometric Mean): 263 ng/mL
- AUC(0-t) ([2]; po, 75 mg, single oral dose 75 mg, Fed, N = 10, read-out: AUC(0-6), Arithmetic Mean): 747 ng·h/mL
- AUC(0-t) ([2]; po, 75 mg, single oral dose 75 mg, Fed, N = 10, read-out: AUC(0-6), Geometric Mean): 732 ng·h/mL
- AUC(0-t) ([2]; po, 75 mg, single oral dose 75 mg, Fed, N = 10, read-out: AUC(0-12), Arithmetic Mean): 790 ng·h/mL
- AUC(0-t) ([2]; po, 75 mg, single oral dose 75 mg, Fed, N = 10, read-out: AUC(0-12), Geometric Mean): 767 ng·h/mL
- AUC(0-t) ([2]; po, 75 mg, single oral dose 75 mg, Fed, N = 10, read-out: AUC(0-24), Arithmetic Mean): 792 ng·h/mL
- AUC(0-t) ([2]; po, 75 mg, single oral dose 75 mg, Fed, N = 10, read-out: AUC(0-24), Geometric Mean): 768 ng·h/mL
- AUC(0-inf) ([2]; po, 75 mg, single oral dose 75 mg, Fed, N = 10, read-out: AUC(0-inf), Arithmetic Mean): 792 ng·h/mL
- AUC(0-inf) ([2]; po, 75 mg, single oral dose 75 mg, Fed, N = 10, read-out: AUC(0-inf), Geometric Mean): 768 ng·h/mL
- AUC(0-t) ([2]; po, 75 mg, single oral dose 75 mg, Fed, N = 10, read-out: AUC(0-t), Arithmetic Mean): 767 ng·h/mL
- AUC(0-t) ([2]; po, 75 mg, single oral dose 75 mg, Fed, N = 10, read-out: AUC(0-t), Geometric Mean): 742 ng·h/mL
- Vd/F ([2]; po, 75 mg, single oral dose 75 mg, Fed, N = 10, read-out: Vz/F, Arithmetic Mean): 120 L
- Vd/F ([2]; po, 75 mg, single oral dose 75 mg, Fed, N = 10, read-out: Vz/F, Geometric Mean): 118 L
- half-life ([2]; po, 75 mg, single oral dose 75 mg, Fed, N = 10, read-out: t1/2, Arithmetic Mean): < 60 min
- half-life ([2]; po, 75 mg, single oral dose 75 mg, Fed, N = 10, read-out: t1/2, Geometric Mean (converted)): 50.1 min
- Tmax ([2]; po, 75 mg, single oral dose 75 mg, Fed, N = 10): 75.6 min
- % AUCex, Arithmetic Mean [2, 5]: 0.89%
- CL/F, Arithmetic Mean [2, 5]: 44.52 L/h
- CL/F, Geometric Mean [2, 5]: 42.44 L/h
- Cav, Arithmetic Mean [2, 5]: 77.4 ng/mL
- Cav, Geometric Mean [2, 5]: 73.6 ng/mL
- Cmax, Geometric Mean ([2]; single oral dose 75 mg, Fed (high-fat breakfast), N = 10, plasma): 263.2 ng/mL
- % AUCex, Arithmetic Mean [2, 6]: 3.5%
- AUC(0-12), Geometric Mean [2, 6]: 767.4 ng·h/mL
- CL/F, Arithmetic Mean [2, 6]: 100.3 L/h
- CL/F, Geometric Mean [2, 6]: 97.59 L/h
- Cav, Arithmetic Mean [2, 6]: 33.0 ng/mL
- Cav, Geometric Mean [2, 6]: 32.0 ng/mL
